Test results taken from PubChem BioAssay AID2060351 (Molecular Pharmacology Branch, DTP, NCI, 2025).

Tested on: 521955-158-R7-J2-PDC spheroids, viability % test/control
Experiment: Anticancer human tumor 521955-158-R7-J2-PDC patient-derived pancreatic carcinoma cell line growth inhibition [TAK]
Settings: spheroids with HUVEC and MSC; for IC50: curve of first compound; for viability, T/C: stronger effect = lower value
Procedure, shortened: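 Spheroids of 60% malignant cells, 25% HUVEC and 15% hMSC were exposed to targeted agents combined with TAK-243 or ipatasertib. Concentrations started at or near clinical Cmax (10 microM if unknown) and descended in half-log steps.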

[1] = second compound 0.3 µM, first compound 0.0316 µM
[2] = second compound 0.3 µM, first compound 0.1 µM
[3] = second compound 0.3 µM, first compound 0.316 µM
[4] = second compound 0.3 µM, first compound 1 µM
[5] = second compound 0.949 µM, first compound 0.0316 µM
[6] = second compound 0.949 µM, first compound 0.1 µM
[7] = second compound 0.949 µM, first compound 0.316 µM
[8] = second compound 0.949 µM, first compound 1 µM
[9] = second compound 3 µM, first compound 0.0316 µM
[10] = second compound 3 µM, first compound 0.1 µM
[11] = second compound 3 µM, first compound 0.316 µM
[12] = second compound 3 µM, first compound 1 µM
[13] = second compound 9.49 µM, first compound 0.0316 µM
[14] = second compound 9.49 µM, first compound 0.1 µM
[15] = second compound 9.49 µM, first compound 0.316 µM
[16] = second compound 9.49 µM, first compound 1 µM
[17] = second compound 30 µM, first compound 0.0316 µM
[18] = second compound 30 µM, first compound 0.1 µM
[19] = second compound 30 µM, first compound 0.316 µM
[20] = second compound 30 µM, first compound 1 µM
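Also: spheroids exposed to compound for 7 days before readout.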
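For viability, T/C in this document: 100% = DMSO vehicle control wells.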

| Structure (SMILES) | IC50 (second compound 0.3 µM) [nM] | IC50 (second compound 0.949 µM) [nM] | IC50 (second compound 3 µM) [nM] | IC50 (second compound 9.49 µM) [nM] | IC50 (second compound 30 µM) [nM] | viability, T/C [1] [%] | viability, T/C [2] [%] | viability, T/C [3] [%] | viability, T/C [4] [%] | viability, T/C [5] [%] | viability, T/C [6] [%] | viability, T/C [7] [%] | viability, T/C [8] [%] | viability, T/C [9] [%] | viability, T/C [10] [%] | viability, T/C [11] [%] | viability, T/C [12] [%] | viability, T/C [13] [%] | viability, T/C [14] [%] | viability, T/C [15] [%] | further results |
| --- | --- | --- | --- | --- | --- | --- | --- | --- | --- | --- | --- | --- | --- | --- | --- | --- | --- | --- | --- | --- | --- |
| COc1c(OCCCN2CCOCC2)ccc2c3n(c(=NC(=O)c4cnc(N)nc4)nc12)CCN3 + CC(C)NCC(C(=O)N1CCN(c2ncnc3c2C(C)CC3O)CC1)c1ccc(Cl)cc1 | 21.9 | 22 | 7.21 | 6.2 | 3.38 | 40.9 | 27.5 | 13.7 | 11 | 43.1 | 19.6 | 13.7 | 9.02 | 29.2 | 24.9 | 13 | 10.4 | 31 | 21.7 | 14.3 | viability, T/C (second compound 0.3 µM, first compound 0.00316 µM): 102%; viability, T/C (second compound 0.3 µM, first compound 0.01 µM): 67.6%; viability, T/C (second compound 0.949 µM, first compound 0.00316 µM): 81%; viability, T/C (second compound 0.949 µM, first compound 0.01 µM): 66.5%; viability, T/C (second compound 3 µM, first compound 0.00316 µM): 55%; viability, T/C (second compound 3 µM, first compound 0.01 µM): 51.1%; viability, T/C (second compound 9.49 µM, first compound 0.00316 µM): 64.3%; viability, T/C (second compound 9.49 µM, first compound 0.01 µM): 36.3%; viability, T/C [16]: 12.2%; viability, T/C (second compound 30 µM, first compound 0.00316 µM): 50.4%; viability, T/C (second compound 30 µM, first compound 0.01 µM): 40.6%; viability, T/C [17]: 27.8%; viability, T/C [18]: 19.8%; viability, T/C [19]: 17.1%; viability, T/C [20]: 11.5% |
| Cc1nc(NC(=O)N2CCCC2C(N)=O)sc1-c1ccnc(C(C)(C)C(F)(F)F)c1 (stereo not given) + CC(C)NCC(C(=O)N1CCN(c2ncnc3c2C(C)CC3O)CC1)c1ccc(Cl)cc1 | 5650 | 3050 | 1320 | 384 | 280 | 106 | 106 | 83.6 | 62.2 | 84 | 82.6 | 64.6 | 54.7 | 90 | 79 | 54.6 | 57.3 | 92.6 | 70.1 | 48 | viability, T/C (second compound 0.3 µM, first compound 3.16 µM): 69.5%; viability, T/C (second compound 0.3 µM, first compound 10 µM): 38.6%; viability, T/C (second compound 0.949 µM, first compound 3.16 µM): 60.5%; viability, T/C (second compound 0.949 µM, first compound 10 µM): 33.6%; viability, T/C (second compound 3 µM, first compound 3.16 µM): 45.4%; viability, T/C (second compound 3 µM, first compound 10 µM): 30.8%; viability, T/C [16]: 43%; viability, T/C (second compound 9.49 µM, first compound 3.16 µM): 36.7%; viability, T/C (second compound 9.49 µM, first compound 10 µM): 27.8%; viability, T/C [17]: 93.7%; viability, T/C [18]: 79.7%; viability, T/C [19]: 44.6%; viability, T/C [20]: 43.2%; viability, T/C (second compound 30 µM, first compound 3.16 µM): 39.7%; viability, T/C (second compound 30 µM, first compound 10 µM): 25.6% |
